Reference: ChEMBL document CHEMBL5131547, “Novel Halomethylketone Azadipeptides for Treating COVID-19” (ACS Med Chem Lett, 2022)

Target: Replicase polyprotein 1ab (Severe acute respiratory syndrome coronavirus 2, UniProt P0DTD1)
Assay: Inhibition of recombinant SARS-CoV-2 3CLpro expressed in Escherichia coli BL21 DE3 using FAM-KTSAVLQSGFRKMEK-TAMRA fluorogenic peptide as substrate preincubated for 1 hr followed by substrate addition measured after 30 mins by FRET assay

Compound	IC50
CC(C)C[C@H](NC(=O)OCc1ccccc1)C(=O)NN(CC1CCCNC1=O)C(=O)CCl (some centres not stated)	5 nM
CC(C)C[C@H](NC(=O)c1cc2ccccc2[nH]1)C(=O)NN(C[C@H]1CCNC1=O)C(=O)CCl	3 nM
